From PubChem BioAssay (NCI)
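These data come from cells grown in 96-well plates and exposed to compound for 48 hours at five concentrations. GI50 marks 50% less growth. At the TGI there is no net growth.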

How the values were obtained:
Assay in all cases: DTP human tumour cell line panel, 48 h
[1] = tested on: 786-0 renal
[2] = tested on: A498 renal
[3] = tested on: A549 NSCLC
[4] = tested on: ACHN renal
[5] = tested on: BT-549 breast
[6] = tested on: CAKI-1 renal
[7] = tested on: CCRF-CEM leukemia
[8] = tested on: COLO 205 colon
[9] = tested on: DU-145 prostate
[10] = tested on: EKVX NSCLC
[11] = tested on: HCC-2998 colon
[12] = tested on: HCT-116 colon
[13] = tested on: HCT-15 colon
[14] = tested on: HOP-62 NSCLC
[15] = tested on: HS 578T breast
[16] = tested on: HT29 colon
[17] = tested on: IGROV1 ovarian
[18] = tested on: K-562 leukemia
[19] = tested on: KM12 colon
[20] = tested on: M14 melanoma
[21] = tested on: MALME-3M melanoma
[22] = tested on: MCF7 breast
[23] = tested on: MDA-MB-231 breast
[24] = tested on: MDA-MB-435
[25] = tested on: MOLT-4 leukemia
[26] = tested on: NCI-H226 lung
[27] = tested on: NCI-H23 lung
[28] = tested on: NCI-H460 lung
[29] = tested on: NCI-H522 lung
[30] = tested on: NCI/ADR-RES ovarian
[31] = tested on: OVCAR-3 ovarian
[32] = tested on: OVCAR-4 ovarian
[33] = tested on: OVCAR-5 ovarian
[34] = tested on: OVCAR-8 ovarian
[35] = tested on: PC-3 prostate
[36] = tested on: RPMI-8226 leukemia
[37] = tested on: RXF 393 renal
[38] = tested on: SF-268 CNS
[39] = tested on: SF-295 CNS
[40] = tested on: SK-MEL-2 melanoma
[41] = tested on: SK-MEL-28 melanoma
[42] = tested on: SK-MEL-5 melanoma
[43] = tested on: SK-OV-3 ovarian
[44] = tested on: SN12C renal
[45] = tested on: SNB-19 CNS
[46] = tested on: SNB-75 CNS
[47] = tested on: SR leukemia
[48] = tested on: SW-620 colon
[49] = tested on: T-47D breast
[50] = tested on: TK-10 renal
[51] = tested on: U251 CNS
[52] = tested on: UACC-257 melanoma
[53] = tested on: UACC-62 melanoma
[54] = tested on: UO-31 renal
[55] = tested on: HL-60(TB) leukemia
[56] = tested on: HOP-92 NSCLC
[57] = tested on: LOX IMVI melanoma
[58] = tested on: SF-539 CNS

OCCN(CCO)c1ccc2c(-c3ccccc3)cc(N(CCO)CCO)nc2n1
TGI [1]: > 100 µM
TGI [2]: > 100 µM
TGI [3]: > 100 µM
TGI [4]: > 100 µM
TGI [5]: > 100 µM
TGI [6]: > 100 µM
TGI [7]: > 100 µM
TGI [8]: > 100 µM
TGI [9]: > 100 µM
TGI [10]: > 100 µM
TGI [11]: > 100 µM
TGI [12]: > 100 µM
TGI [13]: > 100 µM
TGI [14]: > 100 µM
TGI [15]: > 100 µM
TGI [16]: > 100 µM
TGI [17]: > 100 µM
TGI [18]: > 100 µM
TGI [19]: > 100 µM
TGI [20]: > 100 µM
TGI [21]: > 100 µM
TGI [22]: > 100 µM
TGI [23]: > 100 µM
TGI [24]: > 100 µM
TGI [25]: > 100 µM
TGI [26]: > 100 µM
TGI [27]: > 100 µM
TGI [28]: > 100 µM
TGI [29]: > 100 µM
TGI [30]: > 100 µM
TGI [31]: > 100 µM
TGI [32]: > 100 µM
TGI [33]: > 100 µM
TGI [34]: > 100 µM
TGI [35]: > 100 µM
TGI [36]: > 100 µM
TGI [37]: > 100 µM
TGI [38]: > 100 µM
TGI [39]: > 100 µM
TGI [40]: > 100 µM
TGI [41]: > 100 µM
TGI [42]: > 100 µM
TGI [43]: > 100 µM
TGI [44]: > 100 µM
TGI [45]: > 100 µM
TGI [46]: > 100 µM
TGI [47]: > 100 µM
TGI [48]: > 100 µM
TGI [49]: > 100 µM
TGI [50]: > 100 µM
TGI [51]: > 100 µM
TGI [52]: > 100 µM
TGI [53]: > 100 µM
TGI [54]: > 100 µM

Nc1c(C(=O)c2cccc(OC[C@@H](O)CO)c2)cnn1-c1ccc(F)cc1
GI50 [1]: > 25 µM
TGI [1]: > 25 µM
GI50 [2]: > 25 µM
TGI [2]: > 25 µM
GI50 [3]: > 25 µM
TGI [3]: > 25 µM
GI50 [4]: > 25 µM
TGI [4]: > 25 µM
GI50 [5]: > 25 µM
TGI [5]: > 25 µM
GI50 [6]: > 25 µM
TGI [6]: > 25 µM
GI50 [7]: > 25 µM
TGI [7]: > 25 µM
GI50 [8]: > 25 µM
TGI [8]: > 25 µM
GI50 [9]: > 25 µM
TGI [9]: > 25 µM
GI50 [11]: > 25 µM
TGI [11]: > 25 µM
GI50 [12]: > 25 µM
TGI [12]: > 25 µM
GI50 [13]: > 25 µM
TGI [13]: > 25 µM
GI50 [55]: > 25 µM
TGI [55]: > 25 µM
GI50 [14]: > 25 µM
TGI [14]: > 25 µM
GI50 [56]: > 25 µM
TGI [56]: > 25 µM
GI50 [15]: > 25 µM
TGI [15]: > 25 µM
GI50 [16]: > 25 µM
TGI [16]: > 25 µM
GI50 [17]: > 25 µM
TGI [17]: > 25 µM
GI50 [18]: > 25 µM
TGI [18]: > 25 µM
GI50 [19]: > 25 µM
TGI [19]: > 25 µM
GI50 [57]: > 25 µM
TGI [57]: > 25 µM
GI50 [20]: > 25 µM
TGI [20]: > 25 µM
GI50 [21]: > 25 µM
TGI [21]: > 25 µM
GI50 [22]: > 25 µM
TGI [22]: > 25 µM
GI50 [23]: > 25 µM
TGI [23]: > 25 µM
GI50 [24]: > 25 µM
TGI [24]: > 25 µM
GI50 [25]: > 25 µM
TGI [25]: > 25 µM
GI50 [26]: > 25 µM
TGI [26]: > 25 µM
GI50 [27]: > 25 µM
TGI [27]: > 25 µM
GI50 [28]: > 25 µM
TGI [28]: > 25 µM
GI50 [29]: > 25 µM
TGI [29]: > 25 µM
GI50 [30]: > 25 µM
TGI [30]: > 25 µM
GI50 [31]: > 25 µM
TGI [31]: > 25 µM
GI50 [32]: > 20.9 µM
TGI [32]: > 25 µM
GI50 [33]: > 25 µM
TGI [33]: > 25 µM
GI50 [34]: > 25 µM
TGI [34]: > 25 µM
GI50 [35]: > 25 µM
TGI [35]: > 25 µM
GI50 [36]: > 25 µM
TGI [36]: > 25 µM
GI50 [37]: > 25 µM
TGI [37]: > 25 µM
GI50 [38]: > 25 µM
TGI [38]: > 25 µM
GI50 [39]: > 25 µM
TGI [39]: > 25 µM
GI50 [58]: > 25 µM
TGI [58]: > 25 µM
GI50 [40]: > 25 µM
TGI [40]: > 25 µM
GI50 [41]: > 25 µM
TGI [41]: > 25 µM
GI50 [42]: > 25 µM
TGI [42]: > 25 µM
GI50 [43]: > 25 µM
TGI [43]: > 25 µM
GI50 [44]: > 25 µM
TGI [44]: > 25 µM
GI50 [45]: > 25 µM
TGI [45]: > 25 µM
GI50 [46]: > 25 µM
TGI [46]: > 25 µM
GI50 [47]: > 25 µM
TGI [47]: > 25 µM
GI50 [48]: > 25 µM
TGI [48]: > 25 µM
GI50 [49]: > 25 µM
TGI [49]: > 25 µM
GI50 [50]: > 25 µM
TGI [50]: > 25 µM
GI50 [51]: > 25 µM
TGI [51]: > 25 µM
GI50 [52]: > 25 µM
TGI [52]: > 25 µM
GI50 [53]: > 25 µM
TGI [53]: > 25 µM
GI50 [54]: > 25 µM
TGI [54]: > 25 µM
